Results published in PMC9027957, “Interspecies Comparisons of the Effects of Potential Antiviral 3-Amidinophenylalanine Derivatives on Cytochrome P450 1A2 Isoenzyme” (Veterinary Sciences, 2022).
Like-named read-outs stand apart in the source and are kept apart here.

Assays:
CYP1A2 [1] = target: T1, CYP1A2 (Canis lupus familiaris, UniProt P56592); test: CYP1A2 fluorometric activity assay in beagle hepatic microsomes; assay type: in vitro ADME; settings: beagle, dog, 15 min, 50 µM
T1 construct: endogenous in cells; host or cells: beagle hepatocytes
T1 sequence (P56592 1-512): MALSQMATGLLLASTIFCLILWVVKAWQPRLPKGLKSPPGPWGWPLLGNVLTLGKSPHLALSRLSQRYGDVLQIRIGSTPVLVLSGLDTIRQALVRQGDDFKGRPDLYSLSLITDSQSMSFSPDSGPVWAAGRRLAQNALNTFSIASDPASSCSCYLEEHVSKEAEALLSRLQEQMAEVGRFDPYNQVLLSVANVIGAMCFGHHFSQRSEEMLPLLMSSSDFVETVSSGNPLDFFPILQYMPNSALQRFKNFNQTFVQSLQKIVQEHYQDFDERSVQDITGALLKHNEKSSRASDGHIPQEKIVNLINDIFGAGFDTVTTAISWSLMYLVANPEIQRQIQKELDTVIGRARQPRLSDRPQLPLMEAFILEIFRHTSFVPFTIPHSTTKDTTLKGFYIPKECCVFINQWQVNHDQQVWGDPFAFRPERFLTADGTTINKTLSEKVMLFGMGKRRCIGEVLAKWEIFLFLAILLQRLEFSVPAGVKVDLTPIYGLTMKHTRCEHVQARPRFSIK
Description: (§1) The Biovision CYP assay (BioVision, Inc., Kampenhout, Belgium) utilizes a non-fluorescent CYP1A2 substrate capable of transforming into a highly fluorescent metabolite, which can be detected in the visible range. α-naphthoflavone was used as a CYP1A2 reference inhibitor at 6 µM during the experiments. Rat (Sprague–Dawley) and beagle (Gibco, Biocenter, Szeged, Hungary, protein concentration: 20 mg/mL) hepatic microsomal preparations were prepared separately by mixing 25 µL of the obtained rat or beagle microsomal suspension with 2425 µL assay buffer and with 50 µL NADPH generating system (100×). In the case of the cynomolgus monkey microsomal suspension (Primacyt, Schwerin, Germany, protein concentration: 5 mg/mL), the following volumes were applied: in addition to 100 µL of monkey microsomal suspension, the amount of assay buffer and the NADPH generating system were adjusted in order to ensure the original ratios of these components to reach a final volume of 2500 µL. Rat, beagle, and cynomolgus monkey microsomal suspension aliquots (50 µL) were treated with the protease inhibitor 20 µL, 0–1000 µM), the reference compound α-naphthoflavone (20 µL, 30 µM), or the assay buffer without test compounds (20 µL, background control) for 15 min at 37 °C. After incubation, 30 µL of the appropriate CYP1A2 substrate/NADP+ mixture was added to each well, yielding a final reaction volume of 100 µL/well. The protein contents of the obtained microsomes were analysed using bicinchoninic acid protein assay kit (Pierce BCA kit, Thermo Fisher Scientific, Waltham, MA, USA). […] The fluorescence intensities were measured with a fluorometer (Victor X2 2030, Perkin Elmer, Waltham, MA, USA), using λEx/Em = 406/468 nm.

CYP1A2 [2] = target: T2, CYP1A2 (Macaca fascicularis, UniProt O77809); test: CYP1A2 fluorometric activity assay in cynomolgus monkey hepatic microsomes; assay type: in vitro ADME; set-up: cynomolgus monkey microsomal suspension (Primacyt, Schwerin, Germany, protein concentration: 5 mg/mL); tissue Primacyt, Schwerin, Germany; host or cells: liver (hepatic microsomes)
T2 sequence (O77809 1-516): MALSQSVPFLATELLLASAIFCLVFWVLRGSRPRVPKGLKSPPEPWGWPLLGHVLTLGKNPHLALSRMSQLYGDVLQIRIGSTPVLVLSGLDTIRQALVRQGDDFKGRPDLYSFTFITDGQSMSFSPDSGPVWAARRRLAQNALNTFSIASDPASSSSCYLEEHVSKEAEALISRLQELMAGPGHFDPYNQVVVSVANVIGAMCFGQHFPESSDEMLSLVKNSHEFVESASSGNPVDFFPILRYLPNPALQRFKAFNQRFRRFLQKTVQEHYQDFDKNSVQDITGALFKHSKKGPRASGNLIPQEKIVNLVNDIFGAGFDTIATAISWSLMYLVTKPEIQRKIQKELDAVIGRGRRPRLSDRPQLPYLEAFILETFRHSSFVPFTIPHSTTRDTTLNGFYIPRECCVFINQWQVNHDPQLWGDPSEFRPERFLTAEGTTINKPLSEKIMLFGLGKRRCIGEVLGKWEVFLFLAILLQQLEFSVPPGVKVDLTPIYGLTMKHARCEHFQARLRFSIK
Description: as §1

SARS-CoV-2 = tested on: SARS-CoV-2; set-up: method as in PMID 32703818; settings: infected human airway epithelial Calu 3 cells, dose-dependent; cited from earlier work
[3] = tested on: chicken hepatic cell model; settings: cited from earlier work
CYP1A2 [4] = target: T1, CYP1A2; assay type: cell-based; settings: dog, 2 h
Description: For the measurements of CYP1A2 activities, hepatocytes were grown on 24-well collagen-coated membrane inserts (Costar Transwell-PTFE membrane, 6.5 mm, pore size: 0.4 µm, Merck, Darmstadt, Germany). […] The determination of the CYP1A2 activities were performed using the P450-Glo CYP450 Assay (Promega, Madison, WI, USA) according to the manufacturer’s instructions.

[5] = tested on: intestinal epithelial cells (HIEC and IPEC-J2) and primary human hepatocytes (PHH); settings: up to a concentration 50 μM; cited from earlier work
beagle hepatocytes = test: MTS cytotoxicity assay in beagle primary hepatocytes; assay type: cell-based; settings: 50 μM and 100 μM, 24 h
Description: (§2) Rat, beagle, and cynomolgus monkey cryopreserved primary hepatocytes were obtained from Primacyt Cell Culture Company (Schwerin, Germany). The thawing, plating, and maintenance media were purchased from Lonza Group Ltd. (Biocenter Ltd., Szeged, Hungary). Influence of inhibitors MI-432 and MI-1900 on the viability of primary […] hepatocytes was tested. Hepatocytes, grown on a 96-well plate for 24 h, were incubated with the inhibitors at 0, 50, and at 100 µM for 24 h in treated groups. The control cells were incubated only with cell maintenance medium. After removal of the medium and three-fold washing of the cells with phosphate-buffered saline (PBS), 20 μL aliquots of CellTiter 96 AQueous one solution (MTS, Promega, Bioscience, Budapest, Hungary) were pipetted into a 96-well plate, each containing 100 μL of phenol red free medium. The plate was incubated with dye for 2 h. Viability of hepatocytes was measured at 490 nm using an EZ Read Biochrom 400 microplate reader.

rat hepatocytes = test: MTS cytotoxicity assay in rat primary hepatocytes; assay type: cell-based; settings: 50 μM and 100 μM, 24 h
Description: as §2

[6] = tested on: intestinal epithelial cells; settings: up to a concentration 50 μM; cited from earlier work
[7] = tested on: cynomolgus monkey hepatocytes; test: MTS cytotoxicity assay in cynomolgus monkey primary hepatocytes; assay type: cell-based; settings: 50 μM and 100 μM, 24 h
Description: as §2

Compound | beagle hepatic microsomal CYP1A2 isoenzyme activity (CYP1A2 [1]) | IC50 (CYP1A2 [2]) | CYP1A2 in the cynomolgus monkey microsomal model (CYP1A2 [2]; microsomes) | SARS-CoV-2 titers (SARS-CoV-2) | redox homeostasis [3] | CYP1A2 function in beagle hepatocytes (CYP1A2 [4]; 20 µM) | CYP1A2 function in beagle hepatocytes (CYP1A2 [4]; 50 µM) | CYP1A2 in the cynomolgus monkey microsomal model (CYP1A2 [2]; inhibitors at 50 µM) | cell death [5] | cell viability vs control (beagle hepatocytes) | cell viability vs control (rat hepatocytes) | extracellular hydrogen peroxide levels [6] | cell viability vs control [7]
N=C(N)c1cccc(C[C@H](NS(=O)(=O)c2cccc(-c3ccc(Cl)cc3Cl)c2)C(=O)N2CCC(CCN)CC2)c1 [MI-432] | reduced the activity of CYP1A2 | 1300 ± 140 nM | inhibited | reduced | only transiently disturbed | significantly inhibited CYP1A2 function | significantly inhibited CYP1A2 function | – | – | – | – | – | –
COc1ccc(-c2cccc(S(=O)(=O)N[C@@H](Cc3cccc(C(=N)N)c3)C(=O)N3CCN(C(=O)NC4CCCCC4)CC3)c2)c(OC)c1 [MI-1900] | – | 1100 ± 800 nM | – | reduced | – | – | – | inhibited | did not cause significant cell death | No significant differences | No significant differences | did not result in elevation in extracellular hydrogen peroxide levels | No significant differences
